Results: PMC5589937 (Scientific Reports, 2017)
Read-outs that look alike come from different tables or passages of the source.

T1: hGIIE N21G (Homo sapiens, UniProt Q9NZK7, N40G)
T1 construct: The gene encoding for hGIIE protein without signal peptide was amplified by PCR; made in house; host or cells: Pichia pastoris X33 (vector pGAPZαA)
T1 sequence (Q9NZK7 20-142 N40G): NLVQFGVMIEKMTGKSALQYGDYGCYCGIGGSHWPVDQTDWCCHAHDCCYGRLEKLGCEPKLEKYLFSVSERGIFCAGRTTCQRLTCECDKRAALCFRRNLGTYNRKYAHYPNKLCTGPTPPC

T2: hGIIE F97L (Homo sapiens, UniProt Q9NZK7, F116L)
T2 construct: The gene encoding for hGIIE protein without signal peptide was amplified by PCR; made in house; host or cells: Pichia pastoris X33 (vector pGAPZαA)
T2 sequence (Q9NZK7 20-142 F116L): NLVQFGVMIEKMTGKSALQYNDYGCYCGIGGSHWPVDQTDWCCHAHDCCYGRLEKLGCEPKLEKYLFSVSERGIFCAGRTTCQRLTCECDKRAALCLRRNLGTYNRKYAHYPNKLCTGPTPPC

T3: hGIIE N21M (Homo sapiens, UniProt Q9NZK7, N40M)
T3 construct: The gene encoding for hGIIE protein without signal peptide was amplified by PCR; made in house; host or cells: Pichia pastoris X33 (vector pGAPZαA)
T3 sequence (Q9NZK7 20-142 N40M): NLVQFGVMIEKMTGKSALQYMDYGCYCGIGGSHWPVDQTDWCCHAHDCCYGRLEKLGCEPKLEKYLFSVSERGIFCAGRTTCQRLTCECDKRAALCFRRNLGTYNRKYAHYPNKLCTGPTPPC

T4: hGIIE G6N (Homo sapiens, UniProt Q9NZK7, G25N)
T4 construct: The gene encoding for hGIIE protein without signal peptide was amplified by PCR; made in house; host or cells: Pichia pastoris X33 (vector pGAPZαA)
T4 sequence (Q9NZK7 20-142 G25N): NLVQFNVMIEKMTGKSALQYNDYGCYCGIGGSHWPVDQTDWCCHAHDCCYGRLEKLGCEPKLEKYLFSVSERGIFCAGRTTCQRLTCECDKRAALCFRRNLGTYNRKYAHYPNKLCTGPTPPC

T5: hGIIE F5L (Homo sapiens, UniProt Q9NZK7, F24L)
T5 construct: The gene encoding for hGIIE protein without signal peptide was amplified by PCR; made in house; host or cells: Pichia pastoris X33 (vector pGAPZαA)
T5 sequence (Q9NZK7 20-142 F24L): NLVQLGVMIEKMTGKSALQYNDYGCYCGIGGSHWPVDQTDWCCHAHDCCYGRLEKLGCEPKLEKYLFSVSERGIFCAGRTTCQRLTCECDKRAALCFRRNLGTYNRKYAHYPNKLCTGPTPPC

T6: hGIIE G6H (Homo sapiens, UniProt Q9NZK7, G25H)
T6 construct: The gene encoding for hGIIE protein without signal peptide was amplified by PCR; made in house; host or cells: Pichia pastoris X33 (vector pGAPZαA)
T6 sequence (Q9NZK7 20-142 G25H): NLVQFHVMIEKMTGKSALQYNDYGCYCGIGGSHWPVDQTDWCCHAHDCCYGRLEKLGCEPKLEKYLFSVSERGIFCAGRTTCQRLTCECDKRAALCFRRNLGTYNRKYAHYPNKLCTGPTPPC

T7: hGIIE N21W (Homo sapiens, UniProt Q9NZK7, N40W)
T7 construct: The gene encoding for hGIIE protein without signal peptide was amplified by PCR; made in house; host or cells: Pichia pastoris X33 (vector pGAPZαA)
T7 sequence (Q9NZK7 20-142 N40W): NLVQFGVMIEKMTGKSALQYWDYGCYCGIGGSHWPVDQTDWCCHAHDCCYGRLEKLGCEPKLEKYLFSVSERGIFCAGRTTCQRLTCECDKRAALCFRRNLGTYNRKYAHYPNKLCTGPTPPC

T8: hGIIE F5L_F97L (Homo sapiens, UniProt Q9NZK7, F116L/F24L)
T8 construct: The gene encoding for hGIIE protein without signal peptide was amplified by PCR; made in house; host or cells: Pichia pastoris X33 (vector pGAPZαA)
T8 sequence (Q9NZK7 20-142 F24L/F116L): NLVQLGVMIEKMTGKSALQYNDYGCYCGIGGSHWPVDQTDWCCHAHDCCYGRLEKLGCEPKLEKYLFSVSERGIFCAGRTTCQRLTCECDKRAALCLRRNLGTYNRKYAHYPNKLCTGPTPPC

T9: WT hGIIE (Homo sapiens, UniProt Q9NZK7)
T9 construct: The gene encoding for hGIIE protein without signal peptide was amplified by PCR; made in house; host or cells: Pichia pastoris X33 (vector pGAPZαA)
T9 sequence (Q9NZK7 20-142): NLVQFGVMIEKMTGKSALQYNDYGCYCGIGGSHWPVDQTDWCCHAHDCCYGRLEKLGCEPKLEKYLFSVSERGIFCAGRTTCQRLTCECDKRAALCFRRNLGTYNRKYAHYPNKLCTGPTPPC

T10: hGIIE (Homo sapiens, UniProt Q9NZK7)
T10 construct: The gene encoding for hGIIE protein without signal peptide was amplified by PCR; made in house; host or cells: Pichia pastoris X33 (vector pGAPZαA)
T10 sequence (Q9NZK7 20-142): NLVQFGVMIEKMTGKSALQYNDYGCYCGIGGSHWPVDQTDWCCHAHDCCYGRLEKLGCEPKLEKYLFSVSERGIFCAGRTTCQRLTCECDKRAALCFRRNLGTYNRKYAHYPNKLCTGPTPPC


What was measured:
severe sepsis = test system: severe sepsis; design: method as in PMID 16096451; conditions: trials terminated; experiment group; cited from earlier work
hGIIE N21G = target: T1, hGIIE N21G; assay: Inhibition of hGIIE mutant N21G, sPLA2 assay kit; type: biochemical; conditions: N21G enzyme 32.86 µM; mean ± s.d., n=2; read-out: IC50 against hGIIE N21G
Experimental: (§1) Enzymatic Kinetics of hGIIE assay was carried out using sPLA2 Assay kit (Cayman, Ann Arbor, MI, USA). Substrate of this assay is 1, 2-Diheptanoyl Thio-phosphatidylcholine (DTPC). After hydrolysis of the thio ester bond in the sn-2 position by phospholipase A2, free thiols are detected using 5, 5-dithio-bis-nitrobenzoic acid (DTNB). Activity assay was carried out on a 96-well plate at 25 °C. 10 µL DTNB, 10 µL protein sample and 5 µL buffer (25 mM Tris-HCl, pH 7.5, 10 mM CaCl2, 100 mM KCl, 0.3 mM Triton X-100) were pooled in the well, then the reaction was initiated by adding 200 µL substrate solution to the well simultaneously. Absorbance at 414 nm was measured every 1 min for 15 min. […] Protein concentration was adjusted to ensure the absorbance increase of 0.01 to 0.1 per minute. Curve was fitted to Michaelis-Menten equation and Lineweaver-Burk plot for the estimation of Km and Vmax using GraphPad Prism 5, Kcat was calculated by Vmax/enzyme concentration.
(§2) Inhibition of wild type (WT) and mutated hGIIE was analyzed using sPLA2 assay kit as mentioned above. In the assay system, 5 µL assay buffer was replaced by 5 µL of the inhibitor. Different concentrations of compound 8, 14, 24, Me-Indoxam, and LY311727 were prepared. The final concentration of enzyme used per well are as following: WT: 6.42 µM; F5L: 6.4 µM; F97L: 10.48 µM; F5L_F97L: 6.73 µM; G6H: 10.91 µM; G6N: 7.56 µM; N21G: 32.86 µM; N21M: 22.14 µM; N21W: 30 µM. Control reactions without enzyme or inhibitor were carried out. Percent inhibition of every well were calculated. Curve was fitted to the log (inhibitor)-response variable slope and IC50 was calculated using GraphPad Prism 5 (GraphPad).

hGIIE F97L = target: T2, hGIIE F97L; assay: Inhibition of hGIIE mutant F97L, sPLA2 assay kit; type: biochemical; conditions: F97L enzyme 10.48 µM; mean ± s.d., n=2; read-out: IC50 against hGIIE F97L
Experimental: as §1, §2

hGIIE N21M = target: T3, hGIIE N21M; assay: Inhibition of hGIIE mutant N21M, sPLA2 assay kit; type: biochemical; conditions: N21M enzyme 22.14 µM; mean ± s.d., n=2; read-out: IC50 against hGIIE N21M
Experimental: as §1, §2

hGIIE G6N = target: T4, hGIIE G6N; assay: Inhibition of hGIIE mutant G6N, sPLA2 assay kit; type: biochemical; conditions: G6N enzyme 7.56 µM; mean ± s.d., n=2; read-out: IC50 against hGIIE G6N
Experimental: as §1, §2

hGIIE F5L = target: T5, hGIIE F5L; assay: Inhibition of hGIIE mutant F5L, sPLA2 assay kit; type: biochemical; conditions: F5L enzyme 6.4 µM; mean ± s.d., n=2; read-out: IC50 against hGIIE F5L
Experimental: as §1, §2

hGIIE G6H = target: T6, hGIIE G6H; assay: Inhibition of hGIIE mutant G6H, sPLA2 assay kit; type: biochemical; conditions: G6H enzyme 10.91 µM; mean ± s.d., n=2; read-out: IC50 against hGIIE G6H
Experimental: as §1, §2

hGIIE N21W = target: T7, hGIIE N21W; assay: Inhibition of hGIIE mutant N21W, sPLA2 assay kit; type: biochemical; conditions: N21W enzyme 30 µM; mean ± s.d., n=2; read-out: IC50 against hGIIE N21W
Experimental: as §1, §2

hGIIE F5L_F97L = target: T8, hGIIE F5L_F97L; assay: Inhibition of hGIIE double mutant F5L_F97L, sPLA2 assay kit; type: biochemical; conditions: F5L_F97L enzyme 6.73 µM; mean ± s.d., n=2; read-out: IC50 against hGIIE F5L_F97L
Experimental: as §1, §2

WT hGIIE = target: T9, WT hGIIE; assay: Inhibition of wild type hGIIE, sPLA2 assay kit (DTPC substrate, DTNB detection); type: biochemical; conditions: WT enzyme 6.42 µM per well; mean ± s.d., n=2; read-out: IC50 against WT hGIIE
Experimental: as §1, §2

hGIIE = target: T10, hGIIE; conditions: cited from earlier work
hGV = conditions: cited from earlier work
cardiovascular diseases = conditions: treatment of cardiovascular diseases; cited from earlier work
rheumatoid arthritis = test system: rheumatoid arthritis; design: method as in PMID 15742431; conditions: clinically tested; cited from earlier work
hGIIA = conditions: measure not given; read-out: potency to hGIIA; cited from earlier work
hGIB = test system: hGIB; design: method as in PMID 16686528; conditions: cited from earlier work
hGX = conditions: cited from earlier work
hGIID = test system: hGIID; design: method as in PMID 15028265; conditions: cited from earlier work
[1] = substrate: CCCCCC(=O)OC[C@H](COP(=O)([O-])OCC[N+](C)(C)C)OC(=O)CCCCC; assay: purified protein, by the assay type; conditions: other: ITC, 25 °C, 2 µM hGIIE, pH 7.5, 10 mM CaCl2
Experimental: Reactions were performed with Microcal ITC200 (GE Healthcare) at 25 °C, and data were collected and analyzed by ORIGIN. A multiple injection kinetic assay was conducted using a stirring speed of 750 rpm. 2 µM protein hGIIE (200 µL) in the reaction cell was titrated with 13 × 3 µL injection of phospholipid (10–50 mM) using a 120 s delay between successive injections. The apparent enthalpy (ΔH) for the hydrolysis of phospholipid by hGIIE was determined in a separate experiment in which 1 × 6 µL injections of phospholipid into 2 µM protein hGIIE (200 µL) was made using spacing 1800 s. Buffer solution was carefully matched in both the ligand and enzyme solutions. Mother liquor of phospholipids including DHPG (in water), DHPC (in DMSO), DHPE (in DMSO) (Avanti) with 200 mM concentration were prepared. Working buffer (20 mM DHPG, 50 mM DHPC, 10 mM DHPE) is prepared by diluting the mother liquor with buffer 100 mM Tris, 150 mM KCl, 10 mM CaCl2, pH 7.5.

Molecule | IC50 (hGIIE N21G) | IC50 (hGIIE F97L) | IC50 (hGIIE N21M) | IC50 (hGIIE G6N) | IC50 (hGIIE F5L) | IC50 (hGIIE G6H) | IC50 (hGIIE N21W) | IC50 (hGIIE F5L_F97L) | IC50 (WT hGIIE) | IC50 (hGIIE; read-out: IC50 hGIIE) | IC50 (hGV) | further results
CCc1c(C(=O)C(N)=O)c2c(OCC(=O)[O-])cccc2n1Cc1ccccc1.[Na+] [LY315920: Na] |  |  |  |  |  |  |  |  |  |  |  | outcome of clinical trials in severe sepsis (severe sepsis): higher mortality rate
CCc1c(CC(N)=O)c2cc(OCCCP(=O)(O)O)ccc2n1Cc1ccccc1 [LY311727] | 5130 ± 1070 nM | 1120 ± 20 nM | 5980 ± 400 nM | 3070 ± 420 nM | 1790 ± 140 nM | 14300 ± 390 nM | 18000 ± 1370 nM | 1000 ± 220 nM |  |  |  | 
Cc1c(C(=O)C(N)=O)c2c(OCC(=O)O)cccc2n1Cc1cccc(Br)c1 [Compound 14] | 1730 ± 50 nM | 280 ± 70 nM | 840 ± 30 nM | 230 ± 30 nM | 130 ± 40 nM | 880 ± 310 nM | 1940 ± 220 nM | 300 ± 20 nM | 220 ± 20 nM | < 25 nM | < 330 nM | 
Cc1c(C(=O)C(N)=O)c2c(OCC(=O)O)cccc2n1Cc1cccc2ccccc12 [Compound 8] | 630 ± 20 nM | 480 ± 30 nM | 1050 ± 20 nM | 630 ± 50 nM | 250 ± 60 nM | 3760 ± 860 nM | 1270 ± 220 nM | 250 ± 40 nM | 280 ± 30 nM | < 25 nM | < 330 nM | 
CCc1c(C(=O)C(N)=O)c2c(OCC(=O)OC)cccc2n1Cc1ccccc1 [Varespladib methyl] |  |  |  |  |  |  |  |  |  |  |  | adverse effects in phase three trials (cardiovascular diseases): increased events of cardiovascular mortality, heart attack, and stroke; efficacy in treatment of rheumatoid arthritis (rheumatoid arthritis): ineffective
Cc1c(C(=O)C(N)=O)c2c(OCC(=O)O)cccc2n1Cc1ccccc1-c1ccccc1 [Me-Indoxam] | 1840 ± 30 nM | 260 ± 20 nM | 880 ± 10 nM | 140 ± 20 nM | 160 ± 10 nM | 300 ± 20 nM | 1440 ± 130 nM | 240 ± 30 nM | 210 ± 10 nM |  |  | IC50 (hGIIE; measure not given, read-out: potency to hGIIE): 8 nM; IC50 (hGIIA): 30 nM
CCc1c(C(=O)C(N)=O)c2c(OCC(=O)O)cccc2n1Cc1ccccc1 [LY315920, Varespladib] |  |  |  |  |  |  |  |  |  |  | 500 nM | IC50 (hGIB): 750 nM; IC50 (hGX): 75 nM
Cc1c(C(=O)C(N)=O)c2c(OCC(=O)O)cccc2n1Cc1ccccc1C(F)(F)F [Compound 24] | 2390 ± 400 nM | 250 ± 20 nM | 830 ± 220 nM | 270 ± 30 nM | 110 ± 10 nM | 540 ± 30 nM | 1870 ± 180 nM | 140 ± 10 nM |  | < 25 nM | < 330 nM | decreased effect against hGIID in comparison to hGIIE (hGIID): over 100 fold; decreased effect against hGX than hGIIE (hGX): about 50 fold
hGIIE (Homo sapiens) (protein) NLVQFGVMIEKMTGKSALQYNDYGCYCGIGGSHWPVDQTDWCCHAHDCCYGRLEKLGCEPKLEKYLFSVSERGIFCAGRTTCQRLTCECDKRAALCFRRNLGTYNRKYAHYPNKLCTGPTPPC |  |  |  |  |  |  |  |  |  |  |  | Km [1]: 5.52 ± 1.00 mM; kcat [1]: 3.22 ± 0.30 s⁻¹
